From US10457709B2, “Antimicrobial peptides, their variants and uses” (priority 2015, dated 2019)
Square brackets hold non-standard residues; d marks the D form. Ends that are not written are not given here. Peptide text beside a SMILES is read from it.

What was measured:
human erythrocytes = type: cell-based
Method: In hemolysis assays, the ability of peptides at 128 μg/ml concentration to lyse human erythrocytes to release hemoglobin was measured. The peptides described here preferably have low hemolytic activity (0.2 to 3.8% hemolysis) in mammal body. […] These peptides are useful as antimicrobial drugs as they show little or no side effects at concentrations needed to kill bacteria.
Minimum inhibition concentrations (MICs) were tested by microbroth dilution method and Chain 104, 105 and 109 inhibited the growth of Escherichia coli (ATCC 25922), Staphylococcus aureus (ATCC 25923), Klebsiella pneumoniae (ATCC 10031) and Pseudomonas aeruginosa (ATCC 27853) between 1-8 μg/ml respectively (Tables 3a, 3b and 3c). The membranolytic activities of the peptides were tested by measuring the release of hemoglobin from erythrocytes of fresh blood donated by voluntiers. Hemoglobin levels were determined spectrometrically by taking OD at 540 nm by following the protocol of Schmidtchen et al., 2011.

[1] = system: Escherichia coli (ATCC 25922); test: microbe, parasite or virus in culture; type: cell-based; conditions: ATCC 25922
Method: (§1) Minimum inhibition concentrations (MICs) were determined against Escherichia coli (ATCC 25922), Staphylococcus aureus (ATCC 25923), Klebsiella pneumoniae (ATCC 10031) and Pseudomonas aeruginosa (ATCC 27853). Also clinical strains of E. coli, K. pneumoniae, E. cloacae, P. aeruginosa, Serratia marcescens, Proteus mirabilis, S. pneumoniae, Acinetobacter baumannii, A. johnsonii and S. aureus were used for MICs assays. Additionally, clinical strains of yeast including Candida albicans, C. glabrata, C. parapsilosis and C. quillermondiae were used. The susceptibility of these microorganisms to Chain peptides were determined using micro broth dilution assay. Colonies of the respective microorganism from Muller Hinton (MH) agar plates incubated overnight were suspended in MH broth media and final concentration of microorganism was adjusted to 5.0×10^5 cfu/ml. An aliquot of 10 μl of each Chain peptide, or gentamicin, tetracycline as reference antibiotics were added in differing concentrations along with 90 μl of bacterial suspension to 96 well polypropylene plates and incubated at 37° C. for 20 to 24 hours. Concentrations of Chain peptides and reference antibiotics ranged from 0.125 to 128 μg/ml and the MICs were recorded as the lowest concentration with no visual growth of bacteria. Similarly, antifungal MICs were tested in Potato dextrose broth.

[2] = system: Klebsiella pneumoniae (ATCC 10031); test: microbe, parasite or virus in culture; type: cell-based; conditions: ATCC 10031
Method: as §1

[3] = system: Pseudomonas aeruginosa (ATCC 27853); test: microbe, parasite or virus in culture; type: cell-based; conditions: ATCC 27853
Method: as §1

[4] = system: Staphylococcus aureus (ATCC 25923); test: microbe, parasite or virus in culture; type: cell-based; conditions: ATCC 25923
Method: as §1

[5] = up to 45° C. for over 14 days; radial diffusion assay
Method: FIG. 8a. […] Antibacterial activity was tested by aliquoting 20 μg of peptides incubated at different temperature and activity was measured by zone of inhibition. Peptides at −20° C. served as control.
(§2) FIG. 8b. Thermostability of the chain peptides 201 (A-D) and 204 (E-H) tested at various temperatures over a period of 14 days by radial diffusion assay. Antibacterial activity was tested by aliquoting 20 μg of peptides incubated at different temperature and activity was measured by zone of inhibition. Peptides at −20° C. served as control.
as §2, with “8c.” for “8b.”, “306” for “201”, “308” for “204”
(§3) Thermal stability was evaluated by diluting peptides to the concentration of 2 mg/ml in PBS buffer (pH 7.4) and incubating at different temperatures, such as +4° C., 25° C. (RT), 37° C. and 45° C., peptides stored at −20° C. were used as control. After each time interval, 100 μl (2 mg/ml) of peptides were taken and stored at −20° C. for radial diffusion assay to determine the antibacterial activity (FIG. 8). Peptides were also tested by diluting them at different pH values starting from pH 4 to 9. The effect of NaCl on the antimicrobial activity was tested by adding different concentrations (50, 100 and 200 mM) of NaCl to MH medium and the minimum inhibitory concentrations were tested against 4 ATCC bacterial strains.

[6] = pH 4 to 9; radial diffusion assay
Method: FIG. 9a. pH stability of chain peptides 104 and 105 was determined by radial diffusion assay (RDA). Different pH ranging from 4-9 was used to check the zone of inhibition.
FIG. 9b. pH stability of chain peptides 201 and 204 was determined by radial diffusion assay (RDA). Different pH ranging from 4-9 was used to check the zone of inhibition.
FIG. 9c. pH stability of chain peptides 306 and 308 was determined by radial diffusion assay (RDA). Different pH ranging from 4-9 was used to check the zone of inhibition.
as §3

S. aureus COL (MRSA) = type: cell-based, Staphylococcus aureus
Method: as §1
(§4) Peptides Chain 104, Chain 105, Chain 201, Chain 308, Chain 310 were tested against antibiotic-sensitive strains of S. aureus RN4220 and methicillin resistant strains of S. aureus COL (MRSA). Chain peptides comprising of either L- or D-form amino acids were tested against these bacteria, and the D-form peptides were found have better activity compared to L-form (Table 6). Synergistic activity of chain peptides along with Ertapenem (4 μg/ml) was tested to know whether it will influence the activity against MRSA strains. […] Chain 310 has the best antibacterial activity against the MRSA strains with a MIC of 0.06 & 0.03 μg/ml along with Ertapenem (4 μg/ml) for both forms of L and D-peptides (Table 6).

S. aureus RN4220 = type: cell-based, Staphylococcus aureus; conditions: antibiotic sensitive strain S. aureus RN4220
Method: as §1, §4

[7] = system: MRSA strains (S. aureus COL); test: MIC, synergistic activity with Ertapenem (4 μg/ml); type: cell-based, Staphylococcus aureus; conditions: S. aureus COL, synergistic activity with 4 μg/ml Ertapenem
Method: as §1, §4

Molecule	Side effects to humans as tested by hemolysis assay (human erythrocytes)	Minimum inhibitory concentration, Escherichia coli (ATCC 25922) [1]	Minimum inhibitory concentration, Klebsiella pneumoniae (ATCC 10031) [2]	Minimum inhibitory concentration, Pseudomonas aeruginosa (ATCC 27853) [3]	Minimum inhibitory concentration, Staphylococcus aureus (ATCC 25923) [4]	Thermostability (antibacterial activity retained) [5]	pH stability (antibacterial activity retained) [6]	Minimum inhibitory concentration (MIC), S. aureus COL (MRSA) (S. aureus COL (MRSA))	Minimum inhibitory concentration (MIC), S. aureus RN4220 (S. aureus RN4220)	Minimum inhibitory concentration (MIC), S. aureus COL + 4 μg/ml Ertapenem [7]
WWRLHAKWKLW [Chain109]	little side effects	–	–	–	–	–	–	–	–	–
RLKWFWLFRKR [Chain307]	little side effects	8 mg/L	16 mg/L	1 mg/L	4 mg/L	–	–	–	–	–
RRLIWRRFKWLR [Chain204]	little side effects	2 mg/L	32 mg/L	4 mg/L	16 mg/L	not hindered	not hindered	–	–	–
RKWRAMIRLHAKRLRK [Chain104]	little side effects	–	–	–	–	not hindered	not hindered	–	–	–
RKWRAMIRLHAKWLRK [Chain105]	little side effects	–	–	–	–	not hindered	not hindered	–	–	–
KRKWRWLFKKL [Chain310]	little side effects	4 mg/L	16 mg/L	1 mg/L	8 mg/L	–	–	–	–	–
RLKWFLLFRKR [Chain308]	little side effects	1 mg/L	4 mg/L	2 mg/L	4 mg/L	not hindered	not hindered	–	–	–
RLKRWRLFRKR [Chain306]	–	8 mg/L	>128 mg/L	64 mg/L	2 mg/L	not hindered	not hindered	–	–	–
CC[C@@H](C)[C@@H](NC(=O)[C@@H](Cc1c[nH]c2ccccc12)NC(=O)[C@H](N)CCCCN)C(=O)N[C@@H](C(=O)N[C@H](Cc1c[nH]c2ccccc12)C(=O)N[C@H](CCCNC(=N)N)C(=O)N[C@H](Cc1c[nH]c2ccccc12)C(=O)N[C@H](CCCNC(=N)N)C(=O)N[C@H](Cc1ccccc1)C(=O)N[C@H](CCCCN)C(=O)N[C@H](CCCNC(=N)N)C(=O)O)C(C)C [201 D] (H-[dK][dW][dI][dV][dW][dR][dW][dR][dF][dK][dR]-OH)	–	–	–	–	–	–	–	2 mg/L	2 mg/L	1 mg/L
KWIVWRWRFKR [Chain201]	little side effects	2 mg/L	8 mg/L	8 mg/L	4 mg/L	not hindered	not hindered	–	–	–
KRKWRWLFKKL [Compound 310]	–	–	–	–	–	–	–	>64 mg/L	>64 mg/L	0.06 mg/L
